Measurements: patent US5374772A, “Substituted benzoic acids, inhibitors of phospholipases A2” (Hoffmann-LaRoche Inc., priority 1993, dated 1994)

What was measured:
[1] = biological target: T1, HSF-PLA2 (extracellular PLA2 obtained from human synovial fluid) (Homo sapiens, UniProt P14555); test: Assay for Inhibition of HSF-PLA2 In Vitro; assay type: biochemical; details: for IC50: given as 50 % inhibition at the given concentration, 14C-oleate-labelled E. coli substrate, pH 7.3, 37° C., 30 minutes, read-out: % Inhib of HSF-PLA2: 50 (concentration) = IC50 (μM concentration that produces 50% inhibition of PLA2 activity)
T1 construct: extracellular enzyme obtained from human synovial fluid; from tissue; host or cells: pooled human synovial fluid (0.1% v/v in the assay)
T1 sequence (P14555 21-144): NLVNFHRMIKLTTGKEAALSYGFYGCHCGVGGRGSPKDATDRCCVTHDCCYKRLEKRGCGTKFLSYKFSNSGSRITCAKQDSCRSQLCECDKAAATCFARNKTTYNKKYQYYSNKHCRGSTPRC
Protocol: The PLA2 used in this test is the extracellular enzyme obtained from human synovial fluid (HSF-PLA2). The assay for HSF-PLA2 activity was a modification of the described method [Franson R., Dobrow R., Weiss, J., Elsbach P., and […]. Lipid Res., 19, 18-23 (1978)] which was conducted using [1-^14 C]-oleate-labelled E. coli substrate in excess at a final concentration of 20,000 dpm/ml. This was equivalent to 18.2 mM of cell membrane phospholipid phosphorus and 2×10^9 autoclaved E. coli/ml. The optimal conditions which were developed for the assay of HSF-PLA2 inhibitors are summarized as follows. […] The reaction was terminated by the addition of 2.5 ml of chloroform-methanol (1 to 1.5, v/v). The extraction of lipids from the stopped reaction mixture was conducted by the further additions of 0.5 ml of chloroform and 1 ml of water with mixing. […] The extracted lipid residue was redissolved in […] of a solution containing carrier oleic acid (0.2 mg/ml) of […]]). […] This TLC system rapidly (6 minutes) resolved the enzymatically released product, ^14 C-oleic acid, from the unreacted ^14 C-phospholipid substrate. The unsaturated lipids were located on the chromatogram by a brief exposure to iodine vapor. The oleic acid zone (Rf value 0.95) and phospholipid zone (origin) were cut out, chopped into small pieces, shaken with 2 ml of ethanol-water (80 to 20, v/v) and 15 ml of Aquasol and counted for radioactivity. A control incubation of substrate in the absence of HSF-PLA2 was performed in each experiment. The PLA2 activity of the human synovial fluid was corrected for this small control value. […] The specific activity of PLA2 in the pooled human synovial fluid under the optimal assay conditions was 49.2 nmoles [1-^14 C]-oleic acid released hour^-1 mg^-1. The IC50 (μM concentration of test compound that produces 50% inhibition of PLA2 activity) was determined for each test compound.

[2] = test system: croton oil-induced mouse ear edema; test: Croton Oil Mouse Ear Edema Test; assay type: in vivo, male CD-1 mice; details: 1 mg topical, coapplied with croton oil, ear punch weight at 6 hours
Protocol: The croton oil-induced mouse ear edema test, a model of irritant-induced contact dermatitis, has been used for evaluation of the PLA2 inhibitors by the topical route of administration. This test was carried out as described in the following references:
The major active ingredient in croton oil is the tumor promoter 12-O-tetradecanoylphorbol-13-acetate (TPA) and the topical application of TPA to mouse skin has been reported to cause an increase in epidermal PGE2 production as well as an increase in epidermal cell membrane PLA2 activity. Indomethacin, an inhibitor of prostaglandin synthesis, prevented the TPA-mediated increase in epidermal PGE2 levels as well as the TPA-mediated induction of epidermal cell ornithine decarboxylase. Furthermore, the application of PGE2 to mouse skin countered the inhibitory effect of indomethacin upon TPA-stimulated cellular proliferation.
Twenty five μl of a 1% croton oil solution [dissolved in a mixture of pyridine/water/diethyl ether at a ratio of 5/20/75 (croton oil vehicle)] are applied to the outer side of the right ear of 3-4 week old male CD-1 mice (8 animals per group). The test compounds are dissolved directly in the 1% croton oil solution at various concentrations and coapplied. Control animals receive 25 μl of croton oil vehicle on the right ear. Biopsy punches are removed at 6 hours from the fight ear of the animals using a 6 mm skin trephine (Roboz, Washington, D.C.) and the wet weight of the ear punches is determined. The weight of the biopsy punches is a measure of ear inflammation, primarily edema. The data are expressed as percent inhibition relative to control groups.
Statistical analysis of the mean edema values of the control versus the treated groups is performed using Student's t-test. The significance of changes from the mean value for vehicle-treated (control) animals in the following Tables is indicated as follows: *p<0.05, **p<0.01, ***p<0.005,ns/not significant.

[3] = test system: TPA-induced mouse ear edema; test: TPA Induced Mouse Ear Edema Test (ear punch weight); assay type: in vivo, male CD-1 mice; details: Mus musculus, 30 minutes prior to TPA, ear punch weight at 6 hours; for inhibition in vivo at 0.3 mg: 0.3 mg topical, read-out: % Inhib of TPA Mouse Ear Edema (0.3 mg); for inhibition in vivo at 1 mg: 1 mg topical, read-out: % Inhib of TPA Mouse Ear Edema (1 mg)
Protocol: The TPA-induced mouse ear edema test, a model of irritant-induced contact dermatitis is described in the following reference: J. M. Young, B. M. Wagner and […]. Invest. Dermatology 80, 48-52 (1983). For this test, 10 μl of 12-O-tetradecanoylphorbol-13-acetate (TPA), dissolved in a vehicle of pyridine: water: diethyl ether (20:5:75), was applied to the outside of the right ear of 3-4 week old male CD-1 mice (8 animals per group). The test compounds were dissolved in the same vehicle and 10 μl was applied to the inside of the same ear 30 minutes prior to the application of TPA. Ear punches (6 mm) were removed at 6 hours after TPA application, weighed and assayed for myeloperoxidase (MPO) activity as described in the following reference: P. P. Bradley, […]. Christensen and G. Rothstein, J. Invest. Dermatology 78, 206-209 (1982). The wet weight of the ear biopsy punches is a measure of the ear edema and the level of MPO activity in the ear punches is an indicator of neutrophil infiltration. The data are expressed as percent inhibition of drug-[…] relative to the control group.

[4] = test system: myeloperoxidase (MPO) activity, indicator of neutrophil infiltration; test: TPA mouse ear test, myeloperoxidase activity in ear punches; assay type: in vivo, male CD-1 mice; details: 0.3 mg topically
Protocol: For this test, 10 μl of 12-O-tetradecanoylphorbol-13-acetate (TPA), dissolved in a vehicle of pyridine: water: diethyl ether (20:5:75), was applied to the outside of the right ear of 3-4 week old male CD-1 mice (8 animals per group). The test compounds were dissolved in the same vehicle and 10 μl was applied to the inside of the same ear 30 minutes prior to the application of TPA. Ear punches (6 mm) were removed at 6 hours after TPA application, weighed and assayed for myeloperoxidase (MPO) activity as described in the following reference: P. P. Bradley, D. A. Priebat, R. D. Christensen and G. Rothstein, J. Invest. Dermatology 78, 206-209 (1982). The wet weight of the ear biopsy punches is a measure of the ear edema and the level of MPO activity in the ear punches is an indicator of neutrophil infiltration. The data are expressed as percent inhibition of drug-treatedanimals relative to the control group.

[5] = test system: carrageenan-induced paw edema; test: Rat Carrageenan Paw Edema; assay type: in vivo, Lewis rats; details: 30 mg/kg ip, measured at 2 hours after carrageenan injection
Protocol: Representative compounds of the invention were tested in the rat carrageenan-induced paw edema test to determine their ability to inhibit this acute inflammatory response. Test compounds were administered intraperitoneally or orally to groups of seven Lewis rats (~200 gm) 1 hr prior to carrageenan administration. The test compounds were dissolved in dimethyl sulfoxide for intraperitoneal administration and dissolved or suspended in Labrafil […] for oral administration. At 0 hour, 0.1 mL of 1% carrageenan dissolved in pyrogen free saline was injected subplantarly into the right hind paw to elicit the inflammatory response. The volume (in mL) of the right hind paw was measured by immersion of the paw to the level of the lateral malleolus in an aqueous plethysmometer immediately prior to the injection of carrageenan and then at 1, 2 and 4 hr after carrageenan injection. The paw edema was calculated by subtracting the zero time reading from the readings taken after injection. The percent change of the edema volume from the vehicle treated control was calculated to determine the activity of the test compound. Statistical analysis of the mean paw edema values of the control versus the treated groups was performed using Student's t-test.

inhibition at 10 µM ([1]; read-out: % Inhib of HSF-PLA2) [%] | SMILES | % Inhib of Croton Oil Mouse Ear Edema (1 mg) [2] [%] | inhibition in vivo at 0.3 mg [3] [%] | % Inhib of myeloperoxidase in the TPA mouse ear test [4] [%] | inhibition in vivo at 1 mg [3] [%] | other results
– | CCCCCCCCCCCCCCCCCCOc1cc(OC(=O)C(c2ccccc2)c2ccccc2)cc(C(=O)O)c1 [Example 11, 3-(Octadecyloxy)-5-(2,2-diphenyl-1-oxoethoxy) benzoic acid] | 71 | – | – | – | IC50 [1]: 0.3 µM
– | CCCCCCCCCCCCCCCCCCOc1cc(OC(=O)C23CC4CC(CC(C4)C2)C3)cc(C(=O)O)c1 [Example 13, 3-(Octadecyloxy)-5-[(tricyclo[3.3.1./3,7/]dec-1-ylcarbonyl)oxy]benzoic acid] | 81 | – | – | – | inhibition at 5 µM ([1]; 5 μM, read-out: % Inhib of HSF-PLA2): 86%
– | CCCCCCCCCCCCCCCCCCOc1cc(OCCCOc2ccccc2)cc(C(=O)O)c1 [Example 17, 3-(Octadecyloxy)-5-(3-phenoxypropoxy)benzoic acid] | 81 | – | – | – | IC50 [1]: 1.4 µM
– | CCCCCCCCCCCCCCCCCCOc1cc(OCCCOc2ccc(OCc3ccccc3)cc2)cc(C(=O)O)c1 [Example 30, 3-[[3-(4-Phenylmethoxy)phenoxy]propoxy]-5-(octadecyloxy)benzoic acid] | 62 | – | – | – | –
– | CCCCCCCCCCCCCCCCCCOc1cc(OCCCOc2ccc(O)cc2)cc(C(=O)O)c1 [Example 31, 3-[3-(4-Hydroxyphenoxy)propoxy]-5-(octadecyloxy) benzoic acid] | 84 | 58 | 70 | – | inhibition at 1 µM ([1]; 1 μM, read-out: % Inhib of HSF-PLA2): 37%; inhibition of the edema (rat carrageenan paw edema) [5]: 55%
– | CCCCCCCCCCOc1cc(OCCCOc2ccc(O)cc2)cc(C(=O)O)c1 [Example 40, 3-(Decyloxy)-5-[3-(4-hydroxyphenoxy)propoxy]benzoic acid] | – | 58 | 72 | – | IC50 [1]: 8.8 µM
93 | CCCCCCCCCCCCCCCCCCOc1ccc(OCCCOc2ccc(O)cc2)c(C(=O)O)c1 [Example 50, 2-[3-(4-Hydroxyphenoxy)propoxy]-5-(octadecyloxy) benzoic acid] | – | – | – | 45 | –
55 | CCCCCCCCCCCCCCCCCCOc1ccc(C(=O)O)c(OCCCOc2ccc(OCc3ccccc3)cc2)c1 [Example 53, 4-(Octadecyloxy)-2-[3-[4-(phenylmethoxy)phenoxy]propoxy]benzoic acid] | – | – | – | 17 | –
79 | CCCCCCCCCCCCCCCCCCOc1ccc(C(=O)O)c(OCCCOc2ccc(O)cc2)c1 [Example 54, 2-[3-(4-Hydroxyphenoxy)propoxy]-4-(octadecyloxy) benzoic acid] | – | – | – | 31 | –
91 | CCCCCCCCCCCCCCCCCCOc1cccc(C(=O)O)c1OCCCOc1ccc(OCc2ccccc2)cc1 [Example 57, 3-(Octadecyloxy)-2-[3-[4-(phenylmethoxy)phenoxy]propoxy]benzoic acid] | – | – | – | 62 | –
93 | CCCCCCCCCCCCCCCCCCOc1cccc(C(=O)O)c1OCCCOc1ccc(O)cc1 [Example 58, 2-[3-(4-Hydroxyphenoxy)propoxy]-3-(octadecyloxy) benzoic acid] | – | 48 | 62 | – | –
17 | CCCCCCCCCCCCCCOc1cc(OCCCCCCc2cccc(O)c2O)cc(C(=O)OC)c1 [Example 61, 3-[[6-(2,3-Dihydroxyphenyl)hexyl]oxy]-5-(tetradecyloxy) benzoic acid methyl ester] | – | – | – | 44 | –
88 | CCCCCCCCCCCCCCOc1cc(OCCCCCCc2cccc(O)c2O)cc(C(=O)O)c1 [Example 63, 3-[[6-(2,3-dihydroxyphenyl)hexyl]oxy]-5-(tetradecyloxy)benzoic acid] | – | 61 | 61 | – | –
22 | CCCCCCCCCCOc1cc(OCCCCCCc2cccc(O)c2O)cc(C(=O)OC)c1 [Example 66, 3-(Decyloxy)-5-[[6-(2,3-dihydroxyphenyl)hexyl]oxy]benzoic acid methyl ester] | – | 55 | – | – | –
– | CCCCCCCCCCOc1cc(OCCCCCCc2cccc(O)c2O)cc(C(=O)O)c1 [Example 68, 3-(Decyloxy)-5-[[6-(2,3-dihydroxyphenyl)hexyl]oxy]benzoic acid] | – | 58 | 89 | – | inhibition at 20 µM ([1]; 20 μM, read-out: % Inhib of HSF-PLA2): 74%
